52 compounds from PMC9297786 (Molecular Oncology, 2022) can be followed below.

The structures appear in SMILES notation. Where two headings read alike, the source gives them in different places.

The assay concerns K562. Kind of assay: cells. Set-up: MTT cell growth inhibition assay, absorbance at 490 nm. How it is done: Exponential‐phase cells were seeded into 96‐well plates at a density of 2 × 10^4 cells per well in complete medium. After 24 h, cells were treated with drugs at indicated concentrations and incubated for 48 h. Fresh medium containing 20 μL MTT solution (5 mg·mL^−1) was then added to each well. Then plates were incubated for another 4 h at 37 °C. After removing the medium, 150 μL DMSO was added to each well. The absorbance was recorded at 490 nm in the microplate reader and the inhibition ratio (I%) was calculated. The cell growth assay was conducted as described previously. K562 cells were cultured in IMDM containing 10% fetal bovine serum, 100 U·mL^−1 penicillin and 100 U·mL^−1 streptomycin. […] MEG‐01 cells were cultured in DMEM containing 10% fetal bovine serum, 100 U·mL^−1 penicillin and 100 U·mL^−1 streptomycin. […] Cells were grown at 37 °C in a humidified atmosphere with 5% CO2. […] To identify an EPHB4‐specific inhibitor with a potential of rapid translation into clinic, a pool of clinically approved TKIs and compounds was screened in this study (Fig. S2 and Table S4).

Where [1] appears, read: Homo sapiens, K562, 48 h, read-out: Inhibition rate (%, 10 μM).
Setting [2] is: Homo sapiens, K562, 48 h; read-out: Inhibition rate (%, 10 μM).

In general, inhibition refers to the drop in the measured response relative to a control, in per cent. Regarding `CC(C)=CCOc1c2occc2cc2ccc(=O)oc12` [imperatorin], under setting [1], the inhibition at 10 µM was -7.73%. On the same count and under the same terms, to `CC(C)(C)NCC(O)c1ccc(O)c(CO)c1` (stereo not shown) [salbutamol] belongs -65.8%. The same measure, in the same setting: to `CCOC(=O)C1(c2ccccc2)CCN(C)CC1` [pethidine] belongs -43.7%. The same measure, in the same setting: under `C[C@@H]1C(=O)O[C@H](C)[C@H]1C[C@@H](O)[C@](C)(O)[C@H]1CC[C@@]2(O)C3=CC(=O)[C@@H]4C[C@@H](O)[C@@H](O)C[C@]4(C)[C@H]3CC[C@]12C` [cyasterone] stands -50.6%; under `CCOc1nc2cccc(C(=O)O)c2n1Cc1ccc(-c2ccccc2-c2nnn[nH]2)cc1` [candesartan], -49.7%; under `CN(C)CCC(c1ccc(Cl)cc1)c1ccccn1` (stereo not shown) [chlorpheniramine], -42.9%.

Turning to `O=c1ccc2cc3ccoc3cc2o1` [psoralen], the inhibition at 10 µM under setting [1] was -51.5%. In the case of `CC(C)(C)NC(=O)[C@@H]1C[C@@H]2CCCC[C@@H]2CN1C[C@@H](O)[C@H](Cc1ccccc1)NC(=O)[C@H](CC(N)=O)NC(=O)c1ccc2ccccc2n1` [saquinavir], under setting [1], the inhibition at 10 µM is -30.4%. As for `CC(C)=CCOc1c2ccoc2cc2oc(=O)ccc12` [isoimperatorin], the inhibition at 10 µM under setting [1] was -85.9%. Take `CC(Cc1ccc(O)cc1)NCC(O)c1cc(O)cc(O)c1` (stereo not shown) [fenoterol]: the inhibition at 10 µM under setting [1] was -62%. Still for that read-out and setting: to `O=C1Nc2ccc(Cl)cc2[C@@](C#CC2CC2)(C(F)(F)F)O1` [sustiva] belongs -40.1%. For the compound `COC1=CC=C2[C@H]3Cc4ccc(OC)c5c4[C@@]2(CCN3C)[C@H]1O5` [thebaine], under setting [2], the inhibition at 10 µM was -58.3%. For the compound `COc1ccc2c(c1OC)CN1CCc3cc4c(cc3C1=C2)OCO4` [dihydroberberine], the inhibition at 10 µM under setting [1] was 30.6%. Take `COC(=O)CCc1ccc(OCC(O)CNC(C)C)cc1` (stereo not shown) [brevibloc]: the inhibition at 10 µM under setting [1] is -12.6%. As for `CC(C)NCC(O)c1ccccc1Cl` (stereo not shown) [clorprenaline], the inhibition at 10 µM under setting [1] was -36.2%. `CCCCC(=O)N(Cc1ccc(-c2ccccc2-c2nnn[nH]2)cc1)[C@H](C(=O)O)C(C)C` [valsartan]: the inhibition at 10 µM under setting [1] is -32.4%. With `Cc1ccc(N(CC2=NCCN2)c2cccc(O)c2)cc1` [phentolamine], the inhibition at 10 µM under setting [1] is -43.1%. As for `COc1cc2nc(N(C)CCCNC(=O)C3CCCO3)nc(N)c2cc1OC` (stereo not shown) [alfuzosin], the inhibition at 10 µM under setting [1] was -37.2%.

With `O=C(/C=C/c1ccc(O)c2c1[C@H](C(=O)O[C@H](Cc1ccc(O)c(O)c1)C(=O)O)[C@@H](c1ccc(O)c(O)c1)O2)O[C@H](Cc1ccc(O)c(O)c1)C(=O)O` [salvianolic acid B], the inhibition at 10 µM under setting [1] was -40.8%. Turning to `COc1cc2nc(N3CCN(C(=O)C4CCCO4)CC3)nc(N)c2cc1OC` (stereo not shown) [terazosin], the inhibition at 10 µM under setting [1] was -57%.

Regarding `COc1cc2c(cc1OC)[C@@H]1Cc3ccc(OC)c(OC)c3CN1CC2` [tetrahydropalmatine], the inhibition at 10 µM under setting [1] is -83.4%. For `O=C(O)c1cn(C2CC2)c2cc(N3CCNCC3)c(F)cc2c1=O` [ciprofloxacin], the inhibition at 10 µM under setting [1] is -3.17%. Regarding `CCCCc1nc(Cl)c(CO)n1Cc1ccc(-c2ccccc2-c2nnn[nH]2)cc1` [losartan], the inhibition at 10 µM under setting [1] is -72.9%.

For `CC(C)(C)NCC(O)c1cc(O)cc(O)c1` (stereo not shown) [terbutaline], under setting [1], the inhibition at 10 µM was -58.2%.

Regarding `CN(c1nccc(=O)[nH]1)C1CCN(c2nc3ccccc3n2Cc2ccc(F)cc2)CC1` [mizolastine], the inhibition at 10 µM under setting [1] is -89.1%. As for `COC(=O)C1=C(C)NC(C)=C(C(=O)OC)C1c1ccccc1[N+](=O)[O-]` [nifedipine], the inhibition at 10 µM under setting [1] was 6.88%. For `CC(C)[C@H](N)C(=O)OCCOCn1cnc2c(=O)nc(N)[nH]c21` [valaciclovir], the inhibition at 10 µM under setting [1] is -63.9%.

Turning to `CN(C)CCC=C1c2ccccc2COc2ccccc21` [doxepin], under setting [1], the inhibition at 10 µM was -54.9%. In the case of `COc1ccc2c3c1O[C@H]1[C@@H](O)C=C[C@H]4[C@@H](C2)N(C)CC[C@@]341` [codeine], the inhibition at 10 µM under setting [1] is -64%. For the compound `CCOc1ccccc1OCCN[C@H](C)Cc1ccc(OC)c(S(N)(=O)=O)c1` [tamsulosin], under setting [1], the inhibition at 10 µM was -35.2%. Regarding `Cc1cc(O)c2c(c1)C(=O)c1cc(O)cc(O)c1C2=O` [emodin], the inhibition at 10 µM under setting [1] stood at 6.9%.

Regarding `COc1ccc(C[C@H]2COC(=O)[C@@H]2Cc2ccc(O[C@@H]3O[C@H](CO)[C@@H](O)[C@H](O)[C@H]3O)c(OC)c2)cc1OC` [arctiin], under setting [1], the inhibition at 10 µM is -62.6%. As to `COc1cc2c(cc1OC)[C@@]13CCN4CC5=CCO[C@H]6CC(=O)N2[C@H]1[C@H]6[C@H]5C[C@H]43` [brucine], the inhibition at 10 µM under setting [2] is -63.5%. Turning to `Nc1nc2c(ncn2COCCO)c(=O)[nH]1` [acyclovir], the inhibition at 10 µM under setting [1] was -42.6%. Consider `COc1c2occc2cc2ccc(=O)oc12` [xanthotoxin], for which the inhibition at 10 µM under setting [1] was -42.2%. Turning to `Cc1cc2c(s1)Nc1ccccc1N=C2N1CCN(C)CC1` [olanzapine], the inhibition at 10 µM under setting [1] was -53.5%.

On to `CNC(=O)c1cc(Oc2ccc(NC(=O)Nc3ccc(Cl)c(C(F)(F)F)c3)cc2)ccn1` [sorafenib], for which, under setting [1], the inhibition at 10 µM came to 73.4%. Take `COc1cc2nccc(Oc3ccc(NC(=O)C4(C(=O)Nc5ccc(F)cc5)CC4)cc3)c2cc1OC` [cabozantinib]: the inhibition at 10 µM under setting [1] was found to be 90.1%. On to `CCCc1nc2c(C)cc(-c3nc4ccccc4n3C)cc2n1Cc1ccc(-c2ccccc2C(=O)O)cc1` [telmisartan], for which, under setting [1], the inhibition at 10 µM is -8.14%. Consider `COc1ccc2ccc(=O)oc2c1CC=C(C)C` [osthole], for which the inhibition at 10 µM under setting [1] is -21.2%. With `COCCOC(=O)C1=C(C)NC(C)=C(C(=O)OC(C)C)C1c1cccc([N+](=O)[O-])c1` (stereo not shown) [nimodipine], the inhibition at 10 µM under setting [1] is -69.7%. In the case of `COc1cc2nc(N3CCN(C(=O)C4COc5ccccc5O4)CC3)nc(N)c2cc1OC` (stereo not shown) [doxazosin], the inhibition at 10 µM under setting [1] was -84.5%. Still for that read-out and setting: to `CS(=O)(=O)CCNCc1ccc(-c2ccc3ncnc(Nc4ccc(OCc5cccc(F)c5)c(Cl)c4)c3c2)o1` [lapatinib] belongs 98.8%; to `COc1ccc([C@@H]2CC(=O)c3c(O)cc(O[C@@H]4O[C@H](CO)[C@@H](O)[C@H](O)[C@H]4O[C@@H]4O[C@@H](C)[C@H](O)[C@@H](O)[C@H]4O)cc3O2)cc1O` [neohesperidin], -49.4%.

Turning to `COc1cc(C=O)ccc1O` [vanillin], the inhibition at 10 µM under setting [1] was -86.2%.

Turning to `COc1ccc(CCN(C)CCCC(C#N)(c2ccc(OC)c(OC)c2)C(C)C)cc1OC` (stereo not shown) [verapamil], the inhibition at 10 µM under setting [1] came out at 66%. In the case of `CC(=O)Nc1ccc(OCC(O)CNC(C)C)cc1` (stereo not shown) [practolol], the inhibition at 10 µM under setting [1] was -62.1%. For the compound `COC1=C[C@@H]2[C@@H]3Cc4ccc(OC)c(O)c4[C@]2(CCN3C)CC1=O` [sinomenine], under setting [2], the inhibition at 10 µM is -4.7%. On to `CN(C)C(=O)Oc1cc(OC(=O)N(C)C)cc(C(O)CNC(C)(C)C)c1` (stereo not shown) [bambuterol], for which the inhibition at 10 µM under setting [1] is -43.1%. On the same count and under the same terms, under `CCOC(=O)C1=C[C@@H](OC(CC)CC)[C@H](NC(C)=O)[C@@H](N)C1` [oseltamivir] stands -47.6%; under `COC(=O)C[C@](O)(CCCC(C)(C)O)C(=O)O[C@@H]1C(OC)=C[C@]23CCCN2CCc2cc4c(cc2[C@H]13)OCO4` [homoharringtonine], 68.7%.

Consider `CC[C@H]1CN2CC[C@]3(C(=O)Nc4ccccc43)[C@@H]2C[C@@H]1/C(=C\OC)C(=O)OC` [rhynchophylline], for which the inhibition at 10 µM under setting [1] was -47.3%.
